Patent publication US20230279072A1, “REGULATORY T CELL EPITOPES” (EpiVax Inc., priority 2020, published 2023)
Entries after “also recorded” stand apart in the source; their conditions may differ.

Columns and labels:
[1] = system: CD4+CD25+FoxP3+ regulatory T cells; type: cell-based, human
[2] = system: CD4+ T cells in PBMCs from healthy donors; assay: Tetanus Toxoid Bystander Suppression Assay (TTBSA); type: cell-based, human
[3] = system: CD4+ effector memory T cells; assay: Suppression of Tetanus Toxoid stimulated CD4+ effector T cells in PBMC; type: cell-based, human
Description: Previously harvested and frozen PBMC were thawed and suspended in conditioned chRPMI (3.3×10^6 cells/mL) by conventional means. Cells were stained with CFSE (Cat #: 65-0850-84, Affymetrix, Santa Clara, Calif.) and plated at 300,000 cells per well. Plates were incubated overnight (37° C. in 5% CO2). […] Previous titration experiments performed at EpiVax (EpiVax, Providence, R.I.) have established that stimulation with 0.5 μg/ml Tetanus Toxoid (TT) (Astarte Biologics, Bothell, Wash.) elicits a measurable CD4+ effector memory T cells response in PBMC drawn from healthy control donors (Rhode Island Blood Center, Providence, R.I.). Tetanus Toxoid stock (100 μg/mL) (Astarte Biologics, Bothell, Wash.) was diluted in conditioned chRPMI yielding a working concentration of 1 ug/mL. […] All plates were then incubated for six additional days. On assay day five, 100 μL of supernatant was removed from each well and replaced with freshly conditioned chRPMI.
On assay day seven, cells were removed from incubation. Cells were labeled for live/dead discrimination, for surface markers CD127, CCR7, CD4, CD45RA, and CD25 and for intracellular FoxP3. Stained cells were further prepared for FACS analysis by conventional means. Cells were first gated to eliminate aggregates and dead cells. Live cells were gated for CD4 T cells and all subsequent analysis was done on this population. The activated Teffector population was identified as the CD4+/CD25-high/FoxP3-intermediate (CD4+/CD25^1/FoxP3int) (FIG. 8A).
Proliferation of CD4+/CD25-high (CD4^+/CD25^hi) T cells was estimated from the dilution of the CFSE stain (Cat #: 65-0850-84, Affymetrix, Santa Clara, Calif.) and % proliferation determined by the CFSE-low (CFSEL^lo) population (FIG. 8B).

[4] = system: HLA-DRB1*0101, *0301, *0401, *0701, *1101, *1301 and *1501 alleles; assay: In vitro HLA DRB1 binding assay, panel of seven alleles; design: species or system human
Description: The six FV peptides were tested for in vitro binding to HLA-DRB1*0101, *0301, *0401, *0701, *1101, *1301 and *1501 alleles.

HLA DRB1*0401 = HLA DRB1*0401 (Homo sapiens, UniProt P01903+P01911, A100K/A169T/F76Y/I96L/K127E/L162R/M171V/N62H/P40V/Q125Y/R42H/S133A/S149N/S66Y/V115G/V209L/W38E); assay: HLA DRB1 (IC50) | *0401
HLA DRB1*0701 = HLA DRB1*0701 (Homo sapiens, UniProt P01903+P01911, A100R/A102G/A103Q/D57E/D86V/E43K/F76Y/K127E/L162R/M171V/P40G/Q125H/Q99D/R33Q/R42Y/R54Q/S133A/S66F/T210M/V115G/Y107V/Y59L/Y89S); assay: HLA DRB1 (IC50) | *0701
HLA DRB1*1101 = HLA DRB1*1101 (Homo sapiens, UniProt P01903+P01911, A100R/A169T/A87E/I96F/K41T/L162R/M171V/P40S/Q125H/Q178H/Q39Y/Q99D/R42S/S66Y/T262R/V115G/W38E); assay: HLA DRB1 (IC50) | *1101
HLA DRB1*1101, sequence (P01903 26-254 limits assumed, other chains not shown): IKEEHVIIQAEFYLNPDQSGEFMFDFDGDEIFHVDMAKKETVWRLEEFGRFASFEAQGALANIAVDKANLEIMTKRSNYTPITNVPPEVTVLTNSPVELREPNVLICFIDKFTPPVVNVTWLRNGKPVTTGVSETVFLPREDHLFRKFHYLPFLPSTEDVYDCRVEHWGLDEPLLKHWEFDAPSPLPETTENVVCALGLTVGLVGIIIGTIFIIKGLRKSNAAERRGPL

[5] = system: PBMCs from lupus patients; details: cited from earlier work
human DR molecules = details: cited from earlier work

Compound: CC[C@H](C)[C@H](NC(=O)[C@H](CO)NC(=O)[C@H](Cc1ccc(O)cc1)NC(=O)[C@@H]1CCCN1C(=O)[C@H](CCCNC(=N)N)NC(=O)[C@H](CO)NC(=O)[C@H](C)NC(=O)[C@H](CCSC)NC(=O)[C@H](CC(N)=O)NC(=O)[C@H](CCCCN)NC(=O)[C@H](Cc1ccccc1)NC(=O)[C@@H](NC(=O)[C@@H](NC(=O)[C@H](CCCCN)NC(C)=O)[C@@H](C)CC)C(C)C)C(=O)N[C@@H](Cc1ccc(O)cc1)C(N)=O [SEQ ID NO: 3]
- relative proportion of highly proliferative regulatory T cells (CFSE low FoxP3+) among CD25+ Granzyme B+ CD4+ T cells [1]: no significant effect
- inhibition of the CD4+ T memory response / T effector proliferation in the TTBSA [2]: did not inhibit
- activated (CD25 high) proliferating (CFSE low) CD4 T cells stimulated by Tetanus Toxoid [3]: no significant inhibitory effect
- activated effector CD4+ T cells (CD4+/CD25-high/FoxP3-intermediate) reacting to Tetanus Toxoid [3]: no appreciable effect
- proliferation of CD4− cells ([3]; FIG. 11): little inhibitory effect
- proliferation of total CD4+ T cells (CFSE low) ([3]; donor 114, dose-dependent): little to no effect
- binding affinity to HLA DR alleles (in words) ([4]; across the alleles tested): strong affinity
- breadth of binding to HLA DRB1 alleles ([4]; seven alleles, listed as FV432): binding to nearly all of the HLA DRB1 alleles tested; also recorded: bind to multiple HLA DRB1 alleles

Compound: CC[C@H](C)[C@H](NC(=O)[C@@H](NC(=O)[C@H](CC(C)C)NC(=O)[C@@H](NC(=O)[C@H](Cc1ccccc1)NC(=O)[C@H](CC(=O)O)NC(=O)[C@@H](NC(=O)CN)[C@@H](C)O)[C@@H](C)O)[C@@H](C)O)C(=O)N[C@@H](CO)C(=O)N[C@@H](CO)C(=O)N[C@@H](CC(C)C)C(=O)N[C@@H](CCC(N)=O)C(=O)N1CCC[C@H]1C(=O)N[C@@H](CCC(=O)O)C(=O)N[C@@H](CC(=O)O)C(=O)O [SEQ ID NO: 117 | Tregitope 084, GTDFTLTISSLQPED]
- IC50 (HLA DRB1*0401): < 1 µM
- IC50 (HLA DRB1*0701): < 1 µM
- IC50 (HLA DRB1*1101): 100 µM

Compound: RIHMVYSKRSGKPRGYAFIEY (listed as Homo sapiens) [peptide 131-151, residues 131-151 of the spliceosome protein]
- randomly selected lupus patients whose PBMCs contain T cells that proliferate in response to the peptide [5]: 40%
- binding to human DR molecules (human DR molecules): binds to a large panel of human DR molecules
